In PubChem BioAssay AID1197 (NMMLSC, 2008):
The source made the active and inactive calls. No rule for the calls is given here.

Tested on: LNCaP cell loss, flow cytometry event count, 4 d
Experiment: LNCaP cell killing by flow cytometry event count, dose response, cytotoxicity control for prostate cell differentiation activator project (AID 1197)

Structure (SMILES) | EC50
COc1ccc(Nc2nc(N)nc(CN3CCC(Cc4ccccc4)CC3)n2)cc1 | 17 µM (inactive)
COc1ccc(-c2cc(C(F)(F)F)nc(N3CCN(Cc4ccccc4)CC3)n2)cc1OC | 0.549 µM
Cn1nc(-c2ccc(Cl)cc2)c2cc(C(=O)NCCCN3CCCC3)sc21 | 13 µM (inactive)
CCc1ccc(-c2nc(CN3CCC(C(=O)NCc4ccc(F)cc4)CC3)c(C)o2)cc1 | 5.17 µM
Cn1c(=O)cc(OCC(=O)NCCCN2CCN(c3ccccc3F)CC2)c2ccccc21 | 0.101 µM
Cc1cc2c(=O)n(CC(=O)N3CCN(c4ccccc4)CC3)cnc2s1 | 1.61 µM
COc1ccc(-c2noc(-c3cc(Cl)ccc3Cl)n2)cc1OC | 4.83 µM
